Each structure is given as a SMILES string. Converted amounts (≈) assume the structure as drawn. Like-named read-outs stand apart in the source and are kept apart here. A value given as a limit tells only on which side of the number the result lay.

The MIC is the lowest concentration found to suppress growth. Usually melting point stands for the temperature of the solid-liquid transition.

In data set [1] the test system is Mycobacterium tuberculosis H37Ra ITM-M006710 (ATCC 9431). Nature of the data set: Microplate Alamar Blue Assay (MABA), Mtb H37Ra. Format: cell-based. As to conditions: Mycobacterium tuberculosis, 120 h, pH 6.6, MABA, Middlebrook 7H9 broth pH 6.6, resazurin after 120 h; read-out: Mtb H37Ra MIC.
In data set [2] the test system is Mycobacterium smegmatis DSM 43465 (ATCC 607). The data set can be described thus: Microplate Alamar Blue Assay (MABA), M. smegmatis. It is filed as cell-based. The settings on record: Mycolicibacterium smegmatis, read-out: M. smegmatis MIC. In general terms: Alamar Blue is a resazurin reagent that responds to reducing activity.
The subject of data set [3] is M. aurum DSM 43999 (ATCC 23366). The data set can be described thus: Microplate Alamar Blue Assay (MABA), M. aurum. The settings on record: Mycolicibacterium aurum, read-out: M. aurum MIC. It is filed as cell-based.
In data set [4] the test system is Staphylococcus aureus subsp. aureus CCM 4223 (ATCC 29213). The data set can be described thus: Antibacterial microdilution broth (EUCAST), SA. Format: cell-based. The settings on record: Staphylococcus aureus, read-out: SA MIC. On the technique in general: In broth dilution the organism is exposed to a series of concentrations in liquid medium.
Data set [5] relates to Staphylococcus aureus subsp. aureus methicillin-resistant (MRSA) CCM 4750 (ATCC 43300). The data set can be described thus: Antibacterial microdilution broth (EUCAST), MRSA. Format: cell-based. The settings on record: Staphylococcus aureus, read-out: MRSA MIC.
The subject of data set [6] is Staphylococcus epidermidis CCM 4418 (ATCC 12228). The data set can be described thus: Antibacterial microdilution broth (EUCAST), SE. Format: cell-based. The settings on record: read-out: SE MIC.
The subject of data set [7] is Enterococcus faecalis CCM 4224 (ATCC 29212). Nature of the data set: Antibacterial microdilution broth (EUCAST), EF. Format: cell-based. As to conditions: Enterococcus faecalis, read-out: EF MIC.
Data set [8] relates to Escherichia coli CCM 3954 (ATCC 25922). The data set can be described thus: Antibacterial microdilution broth (EUCAST), EC. Format: cell-based. As to conditions: Escherichia coli, read-out: EC MIC.
For data set [9], the system named is Acinetobacter baumannii DSM 30007 (ATCC 19606). Nature of the data set: Antibacterial microdilution broth (EUCAST), ACI. The settings on record: Acinetobacter baumannii, read-out: ACI MIC. It is filed as cell-based.
In data set [10] the test system is Pseudomonas aeruginosa CCM 3955 (ATCC 27853). Nature of the data set: Antibacterial microdilution broth (EUCAST), PA. As to conditions: Pseudomonas aeruginosa, read-out: PA MIC. It is filed as cell-based.
In data set [11] the test system is Candida albicans CCM 8320 (ATCC 24433). The data set can be described thus: Antifungal microdilution broth (EUCAST), CA. It is filed as cell-based. The settings on record: Candida albicans, read-out: CA MIC.
Data set [12] relates to Candida krusei CCM 8271 (ATCC 6258). The data set can be described thus: Antifungal microdilution broth (EUCAST), CK. Format: cell-based. As to conditions: Pichia kudriavzevii, read-out: CK MIC.
In data set [13] the test system is Candida parapsilosis CCM 8260 (ATCC 22019). Nature of the data set: Antifungal microdilution broth (EUCAST), CP. As to conditions: Lodderomyces parapsilosis, read-out: CP MIC. Format: cell-based.
Data set [14] relates to Candida tropicalis CCM 8264 (ATCC 750). Nature of the data set: Antifungal microdilution broth (EUCAST), CT. Format: cell-based. The settings on record: Candida tropicalis, read-out: CT MIC.
In data set [15] the test system is Aspergillus fumigatus ATCC 204305. Nature of the data set: Antifungal microdilution broth (EUCAST), AF. It is filed as cell-based. As to conditions: Aspergillus fumigatus, read-out: AF MIC.
Data set [16] concerns Aspergillus flavus CCM 8363. Nature of the data set: Antifungal microdilution broth (EUCAST), AFla. The settings on record: Aspergillus flavus, read-out: AFla MIC. Format: cell-based.
Data set [17] has as its system Lichtheimia corymbifera CCM 8077. Nature of the data set: Antifungal microdilution broth (EUCAST), LC. It is filed as cell-based. The settings on record: Lichtheimia corymbifera, read-out: LC MIC.
Data set [18] deals with Trichophyton interdigitale CCM 8377 (ATCC 9533). Nature of the data set: Antifungal microdilution broth (EUCAST), TI. It is filed as cell-based. The settings on record: Trichophyton interdigitale, 72 h, read-out: TI MIC.
In data set [19] the test system is Klebsiella pneumoniae CCM 4415 (ATCC 10031). The data set can be described thus: Antibacterial microdilution broth (EUCAST), KP. The settings on record: read after 24 h.

Consider `COC(=O)c1nccnc1NC(=O)c1cccc(Br)c1` [Compound 17e], for which the melting point was 123.3 to 125.2 °C. Besides, in [1], the MIC is at least 500 µg/mL. Moreover, the MIC in data set [2] (MABA, resazurin after 48 h) was at least 500 µg/mL. Further, the MIC in data set [3] (MABA, resazurin after 72 h) was at least 500 µg/mL. Besides, the MIC in data set [4] (read after 24 h) was above 500 µM. Moreover, the MIC in data set [5] (read after 24 h) is above 500 µM. Also, in [6] (read after 24 h), the MIC was above 500 µM. The MIC in data set [7] (read after 24 h) is above 500 µM. For the same molecule, the MIC in data set [8] (read after 24 h) is above 500 µM. Further, the MIC in data set [9] (read after 24 h) is above 500 µM. Besides, the MIC in data set [10] (read after 24 h) was above 500 µM. Further, the MIC in [11] (read after 24 h) was above 500 µM. Further, in [12] (read after 24 h), the minimal inhibitory concentration (MIC) is above 500 µM. In addition, the MIC in data set [13] (read after 24 h) is above 500 µM. In [14] (read after 24 h), the MIC is above 500 µM. For the same molecule, the MIC in data set [15] (ATCC204305, read after 24 h) is above 500 µM. Also, the MIC in [16] (CCM8363, read after 24 h) was above 500 µM. In data set [17] (CCM8077, read after 24 h), the MIC was above 500 µM. Further, in data set [18], the MIC is above 500 µM. Also, the “KP MIC” value in data set [19] is given as above 500 µM.
In turn, `COC(=O)c1nccnc1NC(=O)c1ccc(Br)cc1` [Compound 18e] registered a melting point of 195.1 to 197 °C. The MIC in data set [1] is at least 500 µg/mL. In [2] (MABA, resazurin after 48 h), the MIC was at least 500 µg/mL. For the same molecule, the MIC in [3] (MABA, resazurin after 72 h) was at least 500 µg/mL. In addition, the MIC in data set [4] (read after 24 h) is above 500 µM. Besides, the MIC in data set [5] (read after 24 h) is above 500 µM. Also, the MIC in data set [6] (read after 24 h) is above 500 µM. Also, the MIC in [7] (read after 24 h) is above 500 µM. The MIC in [8] (read after 24 h) is above 500 µM. The MIC in data set [9] (read after 24 h) is above 500 µM. The MIC in data set [10] (read after 24 h) was above 500 µM. In addition, the MIC in data set [11] (read after 24 h) was above 500 µM. Besides, the MIC in data set [12] (read after 24 h) is above 500 µM. For the same molecule, the MIC in data set [13] (read after 24 h) is above 500 µM. In addition, in [14] (read after 24 h), the MIC is above 500 µM. For the same molecule, the MIC in data set [15] (ATCC204305, read after 24 h) was above 500 µM. For the same molecule, the MIC in data set [16] (CCM8363, read after 24 h) was above 500 µM. In addition, the MIC in data set [17] (CCM8077, read after 24 h) is above 500 µM. The MIC in [18] is above 500 µM. For the same molecule, in data set [19], the “KP MIC” value is above 500 µM.
For the molecule `COC(=O)c1nccnc1NC(=O)C1CCCCC1` [Compound 27e], the melting point lay within 106.9 to 108.3 °C. Besides, the MIC in data set [1] was at least 500 µg/mL. Moreover, the MIC in [2] (MABA, resazurin after 48 h) came out at 125 µg/mL (≈ 475 µM). Further, the MIC in [3] (MABA, resazurin after 72 h) was at least 500 µg/mL. Moreover, the MIC in [4] (read after 24 h) was above 500 µM. The MIC in data set [5] (read after 24 h) was above 500 µM. Moreover, the MIC in [6] (read after 24 h) is above 500 µM. In data set [7] (read after 24 h), the MIC is above 500 µM. In addition, the MIC in [8] (read after 24 h) is above 500 µM. In addition, the MIC in data set [9] (read after 24 h) is above 500 µM. In addition, the MIC in data set [10] (read after 24 h) was above 500 µM. Besides, the MIC in [11] (read after 24 h) was above 500 µM. Moreover, the MIC in data set [12] (read after 24 h) was above 500 µM. In data set [13] (read after 24 h), the MIC was above 500 µM. Also, in [14] (read after 24 h), the MIC is above 500 µM. Moreover, the MIC in [15] (ATCC204305, read after 24 h) was above 500 µM. Further, the MIC in data set [16] (CCM8363, read after 24 h) was above 500 µM. Further, the MIC in [17] (CCM8077, read after 24 h) was above 500 µM. In addition, the minimum inhibitory concentration (MIC) in [18] is above 500 µM. Besides, the “KP MIC” value in data set [19] is above 500 µM.
Molecule `COC(=O)c1nccnc1NC(=O)C12CC3CC(CC(C3)C1)C2` [Compound 28e] showed a melting point of 225.6 to 227.2 °C. The MIC in data set [1] was at least 125 µg/mL. Moreover, the MIC in [2] (48 h) was at least 125 µg/mL. Further, the MIC in [3] (72 h) is at least 125 µg/mL. Also, the MIC in [4] (24 h) was above 125 µM. Further, the MIC in data set [5] (24 h) is above 125 µM. Moreover, the MIC in [6] (24 h) was above 125 µM. Also, the MIC in data set [7] (24 h) was above 125 µM. Also, the MIC in [8] (24 h) was above 125 µM. In data set [9] (24 h), the minimal inhibitory concentration (MIC) was above 125 µM. In addition, the MIC in data set [10] (24 h) was above 125 µM. The minimum inhibitory concentration (MIC) in [11] (24 h) is above 125 µM. The MIC in data set [12] (24 h) is above 125 µM. Further, the MIC in data set [13] (24 h) is above 125 µM. The MIC in data set [14] (24 h) is above 125 µM. Moreover, the MIC in [15] (ATCC204305, 24 h) is above 125 µM. Also, the MIC in data set [16] (CCM8363, 24 h) was above 125 µM. Also, the MIC in data set [17] (CCM8077, 24 h) was above 125 µM. In addition, the minimal inhibitory concentration (MIC) in data set [18] is above 125 µM. For the same molecule, the “KP MIC” value in data set [19] is reported as above 125 µM.

The values above are taken from paper PMC9687610, “Adenosine-Mimicking Derivatives of 3-Aminopyrazine-2-Carboxamide: Towards Inhibitors of Prolyl-tRNA Synthetase with Antimycobacterial Activity” (Biomolecules, 2022).
